Patent publication US11999987B2, “Bacterial cocultures expressing a bacteriocin system” (Lallemand Hungary Liquidity Management LLC, priority 2020, dated 2024)

What was measured:
[1] = tested on: Lb. paracasei E3.1 expressing pDW2-P5-nisIEFG; experiment: Growth of Lb. paracasei E3.1 expressing the nisin autoimmunity construct in MRS with nisin, OD600; format: cell-based, Lactobacillus paracasei; conditions: MRS supplemented with 500 ppm of nisin; strain expressing pDW2-P5-nisIEFG; FIG. 1
Description: (§1) Resulting Lb. paracasei strains (±the nisin resistance construct) were grown in MRS (no nisin) and MRS supplemented with 500 ppm of nisin. The OD600 was monitored. When nisin was absent from the media both strains grew identically, indicating no deleterious effect of NisIEFG expression (FIG. 1).

[2] = tested on: Lb. paracasei E3.1 harboring the empty vector; experiment: Growth of Lb. paracasei E3.1 (empty vector) in MRS with nisin, OD600; format: cell-based, Lactobacillus paracasei; conditions: MRS supplemented with 500 ppm of nisin; empty vector strain; FIG. 1
Description: as §1

## nisin
[1]
  growth rate (OD600) in the presence of nisin: only a minimal decrease in growth rate
[2]
  growth (OD600) in the presence of nisin: completely inhibited
